These compounds were tested against T1, pY705-STAT3 in PBMC (Homo sapiens, UniProt P40763) (assay: MSD-pSTAT-PBMC Assay (pSTAT3, IL-6 stimulated)). Settings: PBMC, compound 3 hrs, then 10 ng/mL IL-6 for 10 min; Table 115; read-out: STAT3.
T1 construct: Cryopreserved Peripheral Blood Mononuclear Cells (PBMC) are from AllCells; host or cells: cryopreserved PBMC
Format: cell-based
How it was run: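 Inhibition of cytokine-induced STAT phosphorylation was measured in recovered human PBMC after 3 hrs compound exposure and a 10 min IL-4 (1 ng/mL) or IL-6 (10 ng/mL) challenge. MSD detection of pY641-STAT6 or pY705-STAT3 yielded IC50 values.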

T1 sequence (P40763 whole entry): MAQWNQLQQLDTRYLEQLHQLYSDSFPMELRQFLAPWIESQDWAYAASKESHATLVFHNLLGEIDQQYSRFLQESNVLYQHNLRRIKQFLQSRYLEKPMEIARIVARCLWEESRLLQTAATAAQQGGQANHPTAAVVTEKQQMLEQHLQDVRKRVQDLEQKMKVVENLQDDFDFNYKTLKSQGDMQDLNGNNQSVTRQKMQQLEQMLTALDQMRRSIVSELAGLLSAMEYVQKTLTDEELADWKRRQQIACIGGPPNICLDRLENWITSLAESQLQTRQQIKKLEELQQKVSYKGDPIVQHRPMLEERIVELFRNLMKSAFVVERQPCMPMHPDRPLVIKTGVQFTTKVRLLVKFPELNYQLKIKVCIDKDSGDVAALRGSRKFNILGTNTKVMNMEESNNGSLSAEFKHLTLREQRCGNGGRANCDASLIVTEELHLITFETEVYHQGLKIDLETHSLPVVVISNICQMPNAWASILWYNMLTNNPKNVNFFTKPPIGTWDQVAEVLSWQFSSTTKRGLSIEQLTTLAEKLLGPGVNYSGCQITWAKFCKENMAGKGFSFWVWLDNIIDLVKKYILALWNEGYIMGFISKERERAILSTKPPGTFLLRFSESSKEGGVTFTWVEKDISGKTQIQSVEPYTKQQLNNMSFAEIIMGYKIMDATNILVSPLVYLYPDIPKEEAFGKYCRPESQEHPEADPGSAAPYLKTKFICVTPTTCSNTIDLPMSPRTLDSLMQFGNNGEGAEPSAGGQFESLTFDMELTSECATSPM

`CCCOC(=O)[C@H](C)NP(=O)(Cc1ccc2sc(C(=O)N[C@H]3CCC[C@H]4CC[C@@H](C(=O)N5CC(c6cnccc6C)C5)N4C3=O)cc2c1)Oc1ccccc1` (stereo partly drawn) [Compound 951, propyl (((2-(((3S,6S,9aS)-3-(3-(4-methylpyridin-3-yl)azetidine-1-carbonyl)-5-oxooctahydro-1H-pyrrolo[1,2-a]azepin-6-yl)carbamoyl)benzo [b]thiophen-5-yl)methyl) (phenoxy)phosphoryl)-L-alaninate] and `CCCOC(=O)[C@H](C)NP(=O)(Cc1ccc2sc(C(=O)N[C@H]3CC[C@H](C)C[C@H]4CC[C@@H](C(=O)N5CC(c6cnccc6C)C5)N4C3=O)cc2c1)Oc1ccccc1` (stereo partly drawn) [Compound 286, propyl (((2-(((3S,6S,9S,10aR)-9-methyl-3-(3-(4-methylpyridin-3-yl)azetidine-1-carbonyl)-5-oxodecahydropyrrolo [1,2-a]azocin-6-yl)carbamoyl)benzo [b]thiophen-5-yl)methyl)(phenoxy)phosphoryl)-L-alaninate] cannot be ordered by IC50: under 100 nM for the first, under 100 nM for the second.

`CCCCOC(=O)[C@@H]1CCCN1P(=O)(Oc1ccccc1)C(F)(F)c1ccc2sc(C(=O)N[C@H]3CCC[C@H]4CC[C@@H](C(=O)N5CC(c6cccnc6)C5)N4C3=O)cc2c1` (stereo partly drawn) [Compound 969, butyl ((difluoro(2-(((3S,6S,9aS)-5-oxo-3-(3-(pyridin-3-yl)azetidine-1-carbonyl)octahydro-1H-pyrrolo[1,2-a]azepin-6-yl)carbamoyl)benzo [b]thiophen-5-yl)methyl)(phenoxy)phosphoryl)-L-prolinate] and `CC(C)OC(=O)[C@H](C)NP(=O)(Oc1ccccc1)C(F)(F)c1ccc2sc(C(=O)N[C@H]3CCC[C@H]4CC[C@@H](C(=O)N5CC(c6cccnc6)C5)N4C3=O)cc2c1` (stereo partly drawn) [Compound 248, isopropyl ((difluoro(2-(((3S,6S,9aS)-5-oxo-3-(3-(pyridin-3-yl)azetidine-1-carbonyl)octahydro-1H-pyrrolo[1,2-a]azepin-6-yl)carbamoyl)benzo [b]thiophen-5-yl)methyl)(phenoxy)phosphoryl)-L-alaninate] cannot be ordered by IC50: over 3000 nM for the first, over 3000 nM for the second.

First: CCCOC(=O)[C@H](C)NP(=O)(Cc1ccc2sc(C(=O)N[C@H]3CCC[C@H]4CC[C@@H](C(=O)N5CC(c6cccnc6)C5)N4C3=O)cc2c1)N1CCOCC1 (stereo partly drawn) [Compound 426, propyl (morpholino((2-(((3S,6S,9aS)-5-oxo-3-(3-(pyridin-3-yl)azetidine-1-carbonyl)octahydro-1H-pyrrolo[1,2-a]azepin-6-yl)carbamoyl)benzo [b]thiophen-5-yl)methyl)phosphoryl)-L-alaninate]
Second: CCCOC(=O)[C@H](C)NP(=O)(Oc1ccccc1)[C@@H](F)c1ccc2sc(C(=O)N[C@H]3CCC[C@H]4CC[C@@H](C(=O)N5CC(c6cnccc6N6CCOCC6)C5)N4C3=O)cc2c1 (stereo partly drawn) [Compound 1064, propyl (((R)-fluoro(2-(((3S,6S,9aS)-3-(3-(4-morpholinopyridin-3-yl)azetidine-1-carbonyl)-5-oxooctahydro-1H-pyrrolo[1,2-a]azepin-6-yl)carbamoyl)benzo [b]thiophen-5-yl)methyl)(phenoxy)phosphoryl)-L-alaninate]
The IC50 of the first is higher: over 3000 nM for the first, under 100 nM for the second.

`CCCOC(=O)[C@H](C)NP(=O)(Oc1ccccc1)[C@@H](F)c1ccc2sc(C(=O)N[C@H]3CCC[C@H]4CC[C@@H](C(=O)N5CC(c6cncnc6N6CCC6)C5)N4C3=O)cc2c1` (some centres unmarked) [Compound 1075] and `CCCOC(=O)[C@H](C)NP(=O)(Oc1ccccc1)C(F)c1ccc2sc(C(=O)N[C@H]3CCC[C@H]4CC[C@@H](C(=O)N5CC(c6cncnc6N(C)C)C5)N4C3=O)cc2c1` (some centres unmarked) [Compound 1043] cannot be ordered by IC50: under 100 nM for the first, under 100 nM for the second.

`CCCOC(=O)[C@H](C)NP(=O)(Oc1ccccc1)C(F)c1ccc2sc(C(=O)N[C@H]3CCCC[C@H]4CC[C@@H](C(=O)N5CC(OCCOC)(c6cccnc6)C5)N4C3=O)cc2c1` (stereo partly drawn) [Compound 995, propyl ((fluoro(2-(((3S,6S,10aS)-3-(3-(2-methoxyethoxy)-3-(pyridin-3-yl)azetidine-1-carbonyl)-5-oxodecahydropyrrolo [1,2-a]azocin-6-yl)carbamoyl)benzo [b]thiophen-5-yl)methyl)(phenoxy)phosphoryl)-L-alaninate] and `CCCOC(=O)[C@H](C)NP(=O)(Oc1ccccc1)[C@H](F)c1ccc2sc(C(=O)N[C@H]3CCC[C@H]4CC[C@@H](C(=O)N5CC(c6cnccc6OCC)C5)N4C3=O)cc2c1` (stereo partly drawn) [Compound 484, propyl (((S)-(2-(((3S,6S,9aS)-3-(3-(4-ethoxypyridin-3-yl)azetidine-1-carbonyl)-5-oxooctahydro-1H-pyrrolo[1,2-a]azepin-6-yl)carbamoyl)benzo [b]thiophen-5-yl)fluoromethyl) (phenoxy)phosphoryl)-L-alaninate] cannot be ordered by IC50: under 100 nM for the first, under 100 nM for the second.

First: CC(C)CC(=O)SCCOP(=O)(OCOC(=O)OC1CCOCC1)C(F)(F)c1ccc2sc(C(=O)N[C@H]3CCC[C@H]4CC[C@@H](C(=O)N5CC(c6ncccn6)C5)N4C3=O)cc2c1 (stereo partly drawn) [Compound 1105, S-(2-(((difluoro(2-(((3S,6S,9aS)-5-oxo-3-(3-(pyrimidin-2-yl)azetidine-1-carbonyl)octahydro-1H-pyrrolo[1,2-a]azepin-6-yl)carbamoyl)benzo [b]thiophen-5-yl)methyl)(((((tetra-hydro-2H-pyran-4-yl)oxy)carbonyl)oxy)methoxy)phosphoryl)oxy)ethyl) 3-methylbutanethioate]
Second: Cc1ccncc1C1CN(C(=O)[C@@H]2CC[C@@H]3CCC[C@H](NC(=O)c4cc5cc(C(F)(F)P(=O)(N[C@@H](C)C(=O)OCc6ccccc6)Oc6ccccc6)ccc5s4)C(=O)N32)C1 (stereo partly drawn) [Compound 297, benzyl ((difluoro(2-(((3S,6S,9aS)-3-(3-(4-methylpyridin-3-yl)azetidine-1-carbonyl)-5-oxooctahydro-1H-pyrrolo[1,2-a]azepin-6-yl)carbamoyl)benzo [b]thiophen-5-yl)methyl)(phenoxy)phosphoryl)-L-alaninate]
The IC50 of the first is lower: under 100 nM for the first, 100 to 1000 nM for the second. The first is the more potent here.

First: CCCOC(=O)[C@H](C)NP(=O)(Oc1ccccc1)C(F)c1ccc2sc(C(=O)N[C@H]3CCC[C@H]4CC[C@@H](C(=O)N5CC(c6cnccc6C#N)C5)N4C3=O)cc2c1 (stereo partly drawn) [Compound 273, propyl (((2-(((3S,6S,9aS)-3-(3-(4-cyanopyridin-3-yl)azetidine-1-carbonyl)-5-oxooctahydro-1H-pyrrolo[1,2-a]azepin-6-yl)carbamoyl)benzo [b]thiophen-5-yl)fluoromethyl) (phenoxy)phosphoryl)-L-alaninate]
Second: CCCOC(=O)[C@H](C)NP(=O)(Oc1ccccc1)C(F)c1ccc2sc(C(=O)N[C@H]3CCC[C@H]4CC[C@@H](C(=O)N5CC(c6cn(C)ccc6=O)C5)N4C3=O)cc2c1 (stereo partly drawn) [Compound 985, propyl ((fluoro(2-(((3S,6S,9aS)-3-(3-(1-methyl-4-oxo-1,4-dihydropyridin-3-yl)azetidine-1-carbonyl)-5-oxooctahydro-1H-pyrrolo[1,2-a]azepin-6-yl)carbamoyl)benzo [b]thiophen-5-yl)methyl)(phenoxy)phosphoryl)-L-alaninate]
The IC50 of the first is lower: 100 to 1000 nM for the first, over 3000 nM for the second. The first is the more potent here.
